Assays:
[1] = tested on: hyperpigmented spots; test: 9-week randomized, double-blind, vehicle-controlled, split-face tone benefit study; assay type: in vivo, human; settings: 0.05% in SC-99 vehicle, compared to vehicle
From the text: This Example provides evidence of the advantages of using composite signatures and illustrates clinical affirmation of the C-map model for predicting efficacy of skin-lightening agents. This Example supports embodiments related to composite signatures (as described at the end of Example 3). An illustrative “Skin Tone” Signature developed from a genomics study using a composite skin-lightening benchmark agent signature is derived from Niacinamide, Hexamidine, Sepiwhite, and NAG. The signature is used to query C-map and generate a list of potential skin-lightening agents. A top hit, Chlorhexidine Diactate (CD) is entered into clinical testing for confirmation of efficacy. The control for clinical efficacy is a 5% Niacinamide+1% Sepiwhite formulation in the control vehicle.
Primary endpoints are changes in color spot area fraction (image analysis) and melanin spot area fraction (NC2) from baseline. Secondary endpoints are changes from baseline in L*a*b (color image analysis), mean melanin gray scale (NC2), and melanin evenness (NC2). Texture area fraction and pore area fraction are also evaluated to explore impact on other aspects relating to overall skin tone. […] Statistically significant superiority to the high efficacy benchmark skin active agent to vehicle performance is the clinical success criteria.
Study Design: The experimental protocol included a 9-week (1-week preconditioning & 8-week treatment), randomized, double-blind, round robin, vehicle-controlled, split-face tone benefit study. The subject population included 330 Chinese females, 25-55 years old with hyperpigmented spots. 318 subjects completed the entire study. […] Olay Complete SPF 15 UV Moisturizing Lotion is concomitantly used during pre-conditioning and treatment. 0.5 g each test product per half-face (forehead to jaw line; ˜4 mg/cm^2) is dosed 2× a day (morning/evening). Color SAF and treatment area, Melanin SAF, gray scale, evenness by NC2, and additional measurement of Fine Lines and Wrinkle and Texture are by REAL 3.01A. Data collection points include baseline, and ends of weeks 4, 6 and 8. […]

[2] = tested on: tert-Keratinocyte (tKC) cell line; test: C-map query with the tone composite benchmark signature; assay type: cell-based, human; settings: composite signature of Niacinamide, Sepiwhite, NAG, Hexamidine
Procedure: (§1) Individual experiments (referred to as batches) generally comprise 30 to 96 samples analyzed using Affymetrix GeneChip® technology platforms, containing 6 replicates of the vehicle control (e.g., DSMO), 2 replicate samples of a positive control that gives a strong reproducible effect in the cell type used, and samples of the test material/perturbagen. Replication of the test material is done in separate batches due to batch effects. In vitro testing was performed in 6-well plates to provide sufficient RNA for GeneChip® analysis (2-4 μg total RNA yield/well).
Human telomerized keratinocytes (tKC) were obtained from the University of Texas, Southwestern Medical Center, Dallas, Tex. tKC cells were grown in EpiLife® media with 1× Human Keratinocyte Growth Supplement (Invitrogen, Carlsbad, Calif.) on collagen I coated cell culture flasks and plates (Becton Dickinson, Franklin Lakes, N.J.). Keratinocytes were seeded into 6-well plates at 20,000 cells/cm^2 24 hours before chemical exposure. Human skin fibroblasts (BJ cell line from ATCC, Manassas, Va.) were grown in Eagle's Minimal Essential Medium (ATCC) supplemented with 10% fetal bovine serum (HyClone, Logan, Utah) in normal cell culture flasks and plates (Corning, Lowell, Mass.). BJ fibroblasts were seeded into 6-well plates at 12,000 cells/cm^2 24 hours before chemical exposure. […]

[3] = tested on: teleomerized human keratinocytes (tKC); test: C-map query with the Retinoic Acid/Keratinocyte 200 benchmark signature; assay type: cell-based; settings: Retinoic Acid Keratinocyte RA_200 signature
Procedure: as §1
Human telomerized keratinocytes (tKC) were obtained from the University of Texas, Southwestern Medical Center, Dallas, Tex. tKC cells were grown in EpiLife® media with 1× Human Keratinocyte Growth Supplement (Invitrogen, Carlsbad, Calif.) on collagen I coated cell culture flasks and plates (Becton Dickinson, Franklin Lakes, N.J.). Keratinocytes were seeded into 6-well plates at 20,000 cells/cm^2 24 hours before chemical exposure. […]
(a) Tert-keratinocytes (tKC) RA Signatures. […] Cells were treated with 1 uM tRA for 6 hr, tested in triplicate, with triplicate DMSO controls, and analyzed on HG-U133A GeneChips. […]

SMILES: CC(=O)O.CC(=O)O.NC(=N\CCCCCC/N=C(N)/N=C(\N)Nc1ccc(Cl)cc1)/N=C(\N)Nc1ccc(Cl)cc1 [CD, Chlorhexidine Diacetate]
- Basal skin tone ([1]; week 8): superiority
- NC2 Melanin evenness test ([1]; weeks 6 and 8): superiority to the vehicle
- spot area fraction color test ([1]; topical 2x a day, week 8): significantly fewer spots
- connectivity to tone composite benchmark signature query [2]: top connectivity hit

SMILES: CC1=C(/C=C/C(C)=C/C=C/C(C)=C/C(=O)O)C(C)(C)CCC1 [Retinoic acid, all-trans-retinoic acid]
- average C-map score [3]: highest score

From patent US10282514B2, “Method of constructing a data architecture” (The Procter & Gamble Company, priority 2012, dated 2019)
